How the values were obtained:
[1] = molecular target: Neuraminidase (Influenza A virus (strain A/Brevig Mission/1/1918 H1N1) (Influenza Avirus (strain A/South Carolina/1/1918 H1N1)), UniProt Q9IGQ6); assay: Inhibition of Influenza A virus (A/Brevig Mission/1/1918(H1N1)) recombinant neuraminidase using 4-methylumbelliferyl-alpha-D-N-acetylneuraminic acid sodium salt hydrate solution substrate by ELISA
[2] = molecular target: Neuraminidase (Influenza A virus (strain A/Brevig Mission/1/1918 H1N1) (Influenza Avirus (strain A/South Carolina/1/1918 H1N1)), UniProt Q9IGQ6); assay: Noncompetitive inhibition of Influenza A virus (A/Brevig Mission/1/1918(H1N1)) recombinant neuraminidase using 4-methylumbelliferyl-alpha-D-N-acetylneuraminic acid sodium salt hydrate solution substrate by double reciprocal Lineweaver-Burk plot and dixon plot analysis

Sequence of Neuraminidase (Influenza A virus (strain A/Brevig Mission/1/1918 H1N1) (Influenza Avirus (strain A/South Carolina/1/1918 H1N1)), UniProt Q9IGQ6) (Q9IGQ6 whole entry): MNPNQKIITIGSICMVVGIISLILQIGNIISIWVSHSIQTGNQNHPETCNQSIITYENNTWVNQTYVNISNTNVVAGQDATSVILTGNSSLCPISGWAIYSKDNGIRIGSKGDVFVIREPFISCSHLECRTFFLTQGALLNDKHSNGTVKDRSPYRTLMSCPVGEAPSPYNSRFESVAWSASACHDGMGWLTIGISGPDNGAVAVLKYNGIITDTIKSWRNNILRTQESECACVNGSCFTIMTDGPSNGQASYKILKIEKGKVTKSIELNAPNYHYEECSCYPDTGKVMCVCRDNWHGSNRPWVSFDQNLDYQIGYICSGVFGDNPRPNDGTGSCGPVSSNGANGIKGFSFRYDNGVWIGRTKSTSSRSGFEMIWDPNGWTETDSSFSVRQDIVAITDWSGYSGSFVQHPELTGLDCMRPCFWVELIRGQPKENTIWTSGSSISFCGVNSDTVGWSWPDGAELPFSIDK

Compound | IC50 [1] [µM] | Ki [2] [µM]
C=C(C)C(O)Cc1c(OC)ccc(C(=O)/C=C/c2ccc(O)cc2)c1O (configuration not stated) [XANTHOANGELOL D] | 12.3 | 14
C=C(C)C(O)CC/C(C)=C/Cc1c(OC)ccc(C(=O)/C=C/c2ccc(O)cc2)c1O (configuration not stated) [XANTHOANGELOL G] | 24.2 | 20
COc1ccc(C(=O)/C=C/c2ccc(O)cc2)c(O)c1C/C=C(\C)CCC=C(C)C [XANTHOANGELOL F] | 85.9 | 123
C=C(C)C(O)CC/C(C)=C/Cc1c(O)ccc(C(=O)/C=C/c2ccc(O)cc2)c1O (configuration not stated) [XANTHOANGELOL B] | 22.5 | 20.7
COC(CC/C(C)=C/Cc1c(O)ccc(C(=O)/C=C/c2ccc(O)cc2)c1O)OC [XANTHOKEISTAL A] | 30.9 | 33.5
COc1ccc(C(=O)/C=C/c2ccc(O)cc2)c(O)c1CC=C(C)C | 42.1 | 50.2

Reference: ChEMBL document CHEMBL1821618, “Characteristic of alkylated chalcones from Angelica keiskei on influenza virus neuraminidase inhibition” (Bioorg Med Chem Lett, 2011)
